Source: patent US20130259835A1, “BIFIDOBACTERIUM ADOLESCENTIS SPM0212 HAVING ANTIVIRAL ACTIVITY FOR HEPATITIS B VIRUS, AND PHARMACEUTICAL COMPOSITION FOR PREVENTING AND TREATING HEPATITIS B COMPRISING THEREOF” (SAHMYOOK UNIVERSITY INDUSTRY-ACADEMIC COOPERATION, priority 2011, published 2013)

What was measured:
hepatitis B virus = conditions: administered 3 times a week for at least 3 months; average; cited from earlier work
[1] = test system: Bifidobacterium adolescentis SPM1608; assay: Antibiotics sensitivity, agar dilution MIC; type: cell-based; conditions: strain SPM1608; Table 5
Description: (§1) Antibiotics sensitivity test was performed for comparative analysis of phenotypes of the lactobacillus strain separated in Example 1 and standard strains purchased from KCTC. In order to find out the minimum inhibitory concentrations (MICs) of 18 kinds of antibiotics (ampicillin, mupirocin, amoxicillin/clavulanic acid, oxacillin, cefonicid, cefazolin, ceftazidime, cefotaxime, ceftriaxone, tigecyclin, streptomycin, vancomycin, teicoplanin, daptomycin, linezolid, clindamycin, quinupristin/dalfopristin and tobramycin), agar dilution method was performed according to the Clinical and Laboratory Standards Institute (CLSI, 2003), and the results were listed in Tables 4 and 5.

[2] = test system: Bifidobacterium adolescentis SPM1601; assay: Antibiotics sensitivity, agar dilution MIC; type: cell-based; conditions: strain SPM1601; Table 5
Description: as §1

[3] = test system: Bifidobacterium adolescentis SPM1604; assay: Antibiotics sensitivity, agar dilution MIC; type: cell-based; conditions: strain SPM1604; Table 5
Description: as §1

[4] = test system: Bifidobacterium adolescentis SPM1606; assay: Antibiotics sensitivity, agar dilution MIC; type: cell-based; conditions: strain SPM1606; Table 5
Description: as §1

[5] = test system: Bifidobacterium adolescentis SPM1307-A; assay: Antibiotics sensitivity, agar dilution MIC; type: cell-based; conditions: strain SPM1307-A; Table 5
Description: as §1

[6] = test system: Bifidobacterium adolescentis SPM1005; assay: Antibiotics sensitivity, agar dilution MIC; type: cell-based; conditions: strain SPM1005; Table 5
Description: as §1

[7] = test system: Bifidobacterium longum SPM1207; assay: Antibiotics sensitivity, agar dilution MIC; type: cell-based; conditions: strain SPM1207; Table 5
Description: as §1

[8] = test system: Bifidobacterium longum SPM1205; assay: Antibiotics sensitivity, agar dilution MIC; type: cell-based; conditions: strain SPM1205; Table 5
Description: as §1

[9] = test system: Bifidobacterium adolescentis SPM0214; assay: Antibiotics sensitivity, agar dilution MIC; type: cell-based; conditions: strain SPM0214; Table 5
Description: as §1

[10] = test system: Bifidobacterium adolescentis SPM0308; assay: Antibiotics sensitivity, agar dilution MIC; type: cell-based; conditions: strain SPM0308; Table 5
Description: as §1

[11] = test system: Bifidobacterium longum SPM1206; assay: Antibiotics sensitivity, agar dilution MIC; type: cell-based; conditions: strain SPM1206; Table 5
Description: as §1

[12] = test system: Bifidobacterium adolescentis KCTC3352; assay: Antibiotics sensitivity, agar dilution MIC; type: cell-based; conditions: strain KCTC3352; Table 5
Description: as §1

[13] = test system: Bifidobacterium pseudocatenulatum KCTC3223; assay: Antibiotics sensitivity, agar dilution MIC; type: cell-based; conditions: strain KCTC3223; Table 5
Description: as §1

[14] = test system: Bifidobacterium pseudocatenulatum SPM1309; assay: Antibiotics sensitivity, agar dilution MIC; type: cell-based; conditions: strain SPM1309; Table 5
Description: as §1

[15] = test system: Bifidobacterium adolescentis SPM0212; assay: Antibiotics sensitivity, agar dilution MIC; type: cell-based; conditions: strain SPM0212; Table 5
Description: as §1

[16] = test system: Bifidobacterium longum KCTC3128; assay: Antibiotics sensitivity, agar dilution MIC; type: cell-based; conditions: strain KCTC3128; Table 5
Description: as §1

[17] = test system: Bifidobacterium pseudocatenulatum SPM1204; assay: Antibiotics sensitivity, agar dilution MIC; type: cell-based; conditions: strain SPM1204; Table 5
Description: as §1

[18] = test system: Bifidobacterium adolescentis SPM1605; assay: Antibiotics sensitivity, agar dilution MIC; type: cell-based; conditions: strain SPM1605; Table 5
Description: as §1

| Substance | patients with treatment effect of inhibiting the virus replication (hepatitis B virus) | Minimum inhibitory concentrations (MICs) [1] | Minimum inhibitory concentrations (MICs) [2] | Minimum inhibitory concentrations (MICs) [3] | Minimum inhibitory concentrations (MICs) [4] | Minimum inhibitory concentrations (MICs) [5] | Minimum inhibitory concentrations (MICs) [6] | Minimum inhibitory concentrations (MICs) [7] | Minimum inhibitory concentrations (MICs) [8] | Minimum inhibitory concentrations (MICs) [9] | Minimum inhibitory concentrations (MICs) [10] | Minimum inhibitory concentrations (MICs) [11] | Minimum inhibitory concentrations (MICs) [12] | Minimum inhibitory concentrations (MICs) [13] | Minimum inhibitory concentrations (MICs) [14] | Minimum inhibitory concentrations (MICs) [15] | Minimum inhibitory concentrations (MICs) [16] | Minimum inhibitory concentrations (MICs) [17] | Minimum inhibitory concentrations (MICs) [18] |
| --- | --- | --- | --- | --- | --- | --- | --- | --- | --- | --- | --- | --- | --- | --- | --- | --- | --- | --- | --- |
| interferon-α | 20% |  |  |  |  |  |  |  |  |  |  |  |  |  |  |  |  |  |  |
| teicoplanin [TEC] |  | 2 μl/Ml | 2 μl/Ml | ≦0.06 μl/Ml | ≦0.06 μl/Ml | 0.5 μl/Ml | 1 μl/Ml | 1 | 0.5 μl/Ml | 2 μl/Ml | 2 μl/Ml | 1 μl/Ml | 2 μl/Ml | 2 μl/Ml | 0.25 μl/Ml | 2 μl/Ml | 2 μl/Ml | 2 μl/Ml | 1 μl/Ml |
